From ChEMBL document CHEMBL3871262, “β-Ionone and its analogs as promising anticancer agents” (Eur J Med Chem, 2016)

Legend:
[1] = Cytotoxicity against human C4-2B cells harboring AR T877A mutant assessed as decrease in cell viability after 72 hrs by MTT assay; format: functional, cell-based; conditions: LNCaP C4-2B
[2] = Cytotoxicity against human 22Rv1 cells harboring AR H874Y mutant assessed as decrease in cell viability after 72 hrs by MTT assay; format: functional, cell-based, CWR22R; conditions: 22Rv1, 72 h
[3] = Cytotoxicity against human PC3 cells assessed as decrease in cell viability after 72 hrs by MTT assay; format: functional, cell-based; conditions: PC-3, 72 h
[4] = Cytotoxicity against human LNCAP cells harboring AR T877A mutant assessed as decrease in cell viability after 72 hrs by MTT assay; format: functional, cell-based
[5] = Cytotoxicity against human MDA PCa 2b cells harboring AR T877A/L701H double mutant assessed as decrease in cell viability after 72 hrs by MTT assay; format: functional, cell-based
[6] = Cytotoxicity against human DU145 cells assessed as decrease in cell viability after 72 hrs by MTT assay; format: functional, cell-based; conditions: DU-145, 72 h
[7] = tested on: MDA-MB-435; assay: Inhibition of clone formation in human MDA-MB-435 cells after 48 hrs relative to control; format: functional
[8] = Antiproliferative activity against human MCF7 cells; format: functional, cell-based
[9] = Growth inhibition of human MDA-MB-435 cells after 7 days relative to control; format: functional, cell-based; conditions: MDA-MB-435, 168 h
[10] = tested on: Rattus norvegicus; assay: (§1) Antitumor activity against DMBA-induced mammary carcinogenesis in Sprague-Dawley rat assessed as inhibition of tumor formation at 36 mmol/kg administered with AIN-76A diet treated 2 weeks prior to DMBA addition for 24 weeks by hematoxylin and eosin staining based microscopic analysis relative to DMBA treated control; format: functional
[11] = tested on: MCF7; assay: Inhibition of cell mitosis in human MCF7 cells after 48 hrs relative to control; format: functional
[12] = Growth inhibition of human MDA-MB-435 cells at 100 uM after 7 days relative to control; format: functional; conditions: MDA-MB-435, 168 h, read-out: GI
[13] = Growth inhibition of human SGC7901 cells at 100 uM after 8 days by MTT assay relative to control; format: functional; conditions: SGC-7901, 192 h, read-out: GI
[14] = tested on: Rattus norvegicus; assay: Antitumor activity against DMBA-induced mammary carcinogenesis in Sprague-Dawley rat assessed as tumor incidence at 36 mmol/kg administered with AIN-76A diet treated 2 weeks prior to DMBA addition for 24 weeks by hematoxylin and eosin staining based microscopic analysis (reference value: 82.1%); format: functional
[15] = Growth inhibition of human SGC7901 cells at 200 uM after 24 to 48 hrs by MTT assay relative to control; format: functional; conditions: SGC-7901, read-out: GI
[16] = tested on: MCF7; assay: Induction of apoptosis in human MCF7 cells assessed as inhibition of DNA synthesis at 48 hrs relative to control; format: functional
[17] = Growth inhibition of human SGC7901 cells after 24 to 48 hrs by MTT assay; format: functional, cell-based; conditions: SGC-7901
[18] = Growth inhibition of human SGC7901 cells at 25 uM after 24 to 48 hrs by MTT assay relative to control; format: functional; conditions: SGC-7901, read-out: GI
[19] = Antiproliferative activity against human PC3 cells after 72 hrs by flow cytometry; format: functional, cell-based; conditions: PC-3, 72 h
[20] = Growth inhibition of human SGC7901 cells at 50 uM after 8 days by MTT assay relative to control; format: functional; conditions: SGC-7901, 192 h, read-out: GI
[21] = Antiproliferative activity against human SGC7901 cells; format: functional, cell-based; conditions: SGC-7901
[22] = Antiproliferative activity against human LNCAP cells after 72 hrs by flow cytometry; format: functional, cell-based
[23] = Growth inhibition of human SGC7901 cells at 50 uM after 24 to 48 hrs by MTT assay relative to control; format: functional; conditions: SGC-7901, read-out: GI
[24] = tested on: Rattus norvegicus; assay: Antitumor activity against DMBA-induced mammary carcinogenesis in Sprague-Dawley rat assessed as tumor incidence at 18 mmol/kg administered with AIN-76A diet treated 2 weeks prior to DMBA addition for 24 weeks by hematoxylin and eosin staining based microscopic analysis (reference value: 82.1%); format: functional
[25] = tested on: Rattus norvegicus; assay: as §1, with “18” for “36”; format: functional
[26] = tested on: Rattus norvegicus; assay: Antitumor activity against DMBA-induced mammary carcinogenesis in Sprague-Dawley rat assessed as tumor incidence at 9 mmol/kg administered with AIN-76A diet treated 2 weeks prior to DMBA addition for 24 weeks by hematoxylin and eosin staining based microscopic analysis (reference value: 82.1%); format: functional
[27] = tested on: MDA-MB-435; assay: Inhibition of cell mitosis in human MDA-MB-435 cells after 48 hrs relative to control; format: functional
[28] = Growth inhibition of human SGC7901 cells at 200 uM after 8 days by MTT assay relative to control; format: functional; conditions: SGC-7901, 192 h, read-out: GI
[29] = tested on: Rattus norvegicus; assay: as §1, with “9” for “36”; format: functional
[30] = Growth inhibition of human SGC7901 cells at 100 uM after 24 to 48 hrs by MTT assay relative to control; format: functional; conditions: SGC-7901, read-out: GI
[31] = Growth inhibition of human SGC7901 cells at 25 uM after 8 days by MTT assay relative to control; format: functional; conditions: SGC-7901, 192 h, read-out: GI
[32] = Growth inhibition of human MDA-MB-435 cells at 25 uM after 7 days relative to control; format: functional; conditions: MDA-MB-435, 168 h, read-out: GI
[33] = Growth inhibition of human MDA-MB-435 cells at 50 uM after 7 days relative to control; format: functional; conditions: MDA-MB-435, 168 h, read-out: GI
[34] = tested on: MDA-MB-435; assay: Induction of apoptosis in human MDA-MB-435 cells assessed as inhibition of DNA synthesis after 48 hrs relative to control; format: functional
[35] = Growth inhibition of human MDA-MB-435 cells at 200 uM after 7 days relative to control; format: functional; conditions: MDA-MB-435, 168 h, read-out: GI
[36] = Antiproliferative activity against human DU145 cells after 72 hrs by flow cytometry; format: functional, cell-based; conditions: DU-145, 72 h

SMILES: CC1=C(/C=C/C(=O)/C=C/c2csc3ccccc23)C(C)(C)CCC1O (stereo not given)
- IC50 [1]: 0.57 to 2 µM
- IC50 [2]: 0.57 to 2 µM
- IC50 [3]: 0.57 to 2 µM
- IC50 [4]: 0.57 to 2 µM
- IC50 [5]: 0.57 to 2 µM

SMILES: COc1cc(/C=C(\C(=O)/C=C/C2=C(C)C(O)CCC2(C)C)C(=O)/C=C/c2ccc(O)c(OC)c2)ccc1O (stereo not given)
- IC50 [1]: 1.2 to 5.6 µM
- IC50 [2]: 1.2 to 5.6 µM
- IC50 [3]: 1.2 to 5.6 µM
- IC50 [4]: 1.2 to 5.6 µM
- IC50 [6]: 1.2 to 5.6 µM

SMILES: CC(=O)/C=C/C1=C(C)CCCC1(C)C [BETA-IONONE]
- inhibition (INH) [7]: 95.55%
- IC50 [8]: 104 µM
- IC50 [9]: 42 µM
- inhibition in vivo at 36000 µmol/kg [10]: 87.8%
- inhibition (INH) [11]: 87.79%
- inhibition of growth at 100 µM [12]: 81.5%
- inhibition of growth at 100 µM [13]: 74.4%
- Activity [14]: 10%
- inhibition of growth at 200 µM [15]: 94.2%
- inhibition (INH) [16]: 35.1 - 81.89%
- IC50 [17]: 89 µM
- inhibition of growth at 25 µM [18]: 12%
- IC50 [19]: 130 µM
- inhibition of growth at 50 µM [20]: 28.2%
- IC50 [21]: 175 µM
- IC50 [22]: 130 µM
- inhibition of growth at 50 µM [23]: 30.6%
- Activity [24]: 25.9%
- inhibition in vivo at 18000 µmol/kg [25]: 68.3%
- Activity [26]: 53.3%
- inhibition (INH) [27]: 75.12%
- inhibition of growth at 200 µM [28]: 90.1%
- inhibition in vivo at 9000 µmol/kg [29]: 35.4%
- inhibition of growth at 100 µM [30]: 78.2%
- inhibition of growth at 25 µM [31]: 25.9%
- inhibition of growth at 25 µM [32]: 45.6%
- inhibition of growth at 50 µM [33]: 71.2%
- inhibition (INH) [34]: 78.35%
- inhibition of growth at 200 µM [35]: 84.9%
- IC50 [36]: 210 µM
